Assay results reported in US20230146455A1, “TREATMENT OF INFLAMMATORY DISEASES WITH PEPTIDES AND PHARMACEUTICAL COMPOSITIONS” (Yuyu Pharma, Inc., priority 2020, published 2023).
Several values for one entry are separate records, joined by “and”; a condition that tells them apart may be missing. Identical values can stand only once. Where a SMILES comes first, the peptide text is derived from it. [ ]: non-standard residue; d: D form. Hyp = O=C(O)[C@@H]1C[C@@H](O)CN1

Assays:
CCL5/RANTES = experiment: Example 9 Luminex, LPS hPBMCs: CCL5/RANTES; type: cell-based, human; conditions: PBMC without LPS
Method: (§1) Treatment Human PBMCs were pretreated with YY-101, YDE-011 and YDE-043 or reference compound; Xiidra® at various concentration (ranging from 1 nM to 100 uM) for 2 h before stimulation. An equal volume of 0.5% DMSO was used as a vehicle control. Then, the cells were treated with LPS at 5 ug/ml. The supernatants from treated cells were harvested at 24 h and placed in a 96 well for Luminex cytokine & chemokine profiling using a Luminex 200 multiplex assay (Luminex; R&D system, USA).
(§2) The main study arm with triplicate wells per group in a 24-well plate: • 1. Blank • 2. PBMC: 0.5% DMSO • 3. PBMC+LPS (5 ug/ml) • 4. PBMC+YY-101 100 uM • 5. PBMC+YY-101 10 uM • 6. PBMC+YY-101 1 uM • 7. PBMC+YY-101 0.1 uM • 8. PBMC+YY-101 0.01 uM • 9. PBMC+LPS (5 ug/ml)+Xiidra®100 uM • 10. PBMC+LPS (5 ug/ml)+Xiidra® 10 uM • 11. PBMC+LPS (5 ug/ml)+Xiidra® 1 uM • 12. PBMC+LPS (5 ug/ml)+Xiidra®0.1 uM • 13. PBMC+LPS (5 ug/ml)+Xiidra®0.01 uM • 14. PBMC+LPS (5 ug/ml)+Xiidra®0.001 uM • 15. PBMC+LPS (5 ug/ml)+YY-101 100 uM • 16. PBMC+LPS (5 ug/ml)+YY-101 10 uM • 17. PBMC+LPS (5 ug/ml)+YY-101 1 uM • 18. PBMC+LPS (5 ug/ml)+YY-101 0.1 uM • 19. PBMC+LPS (5 ug/ml)+YY-101 0.01 uM • 20. PBMC+LPS (5 ug/ml)+YY-101 0.001 uM • 21. PBMC+LPS (5 ug/ml)+YDE-011 100 uM • 22. PBMC+LPS (5 ug/ml)+YDE-011 10 uM • 23. PBMC+LPS (5 ug/ml)+YDE-011 1 uM • 24. PBMC+LPS (5 ug/ml)+YDE-011 0.1 uM • 25. PBMC+LPS (5 ug/ml)+YDE-011 0.01 uM • 26. PBMC+LPS (5 ug/ml)+YDE-011 0.001 uM • 27. PBMC+LPS (5 ug/ml)+YDE-043 100 uM • 28. PBMC+LPS (5 ug/ml)+YDE-043 10 uM • 29. PBMC+LPS (5 ug/ml)+YDE-043 1 uM • 30. PBMC+LPS (5 ug/ml)+YDE-043 0.1 uM • 31. PBMC+LPS (5 ug/ml)+YDE-043 0.01 uM • 32. PBMC+LPS (5 ug/ml)+YDE-043 0.001 uM
(§3) Multiplex assay was used to measure 30 cytokines and chemokines. The 1:2, 1:10 and 1:200 diluted cell supernatant and serial dilution of the standard were dispensed into a 96 well plate at 50 ul/well. Then, the pre-mixed cocktail of antibody-coated magnetic beads was dispensed at 50 ul/well and incubated at room temperature for 2 h in a horizontal orbital microplate shaker at 800±500 rpm. The beads were washed using a magnetic device to prevent loss. The biotin-antibody was dispensed in 50 ul of each well and incubated at room temperature for 1 h in a shaker at 800±500 rpm. After washing, streptavidin-PE was added at 50 ul/well and incubated at room temperature for 30 min in a shaker under the same conditions. Finally, after washing, wash buffer (100 ul/well) was added to the plate and incubated in a shaker for 2 min. The Luminex™ 200 setting were set according to the manufacturer's protocol. The data was calculated with a standard five-parameter logistic nonlinear regression analysis of the data (xPonent software 4.2, USA). The levels of cytokine/chemokine are normalized to the live cell counts (1×10^5 cells/mL) and presented as concentrations per mL (pg/mL or ng/mL).

IL-10 = experiment: Example 9 Luminex, LPS hPBMCs: IL-10; type: cell-based, human; conditions: for Concentration / conc/live cell (pg/10^5): IL-10
Method: as §1, §2, §3

[1] = test article 10 uM, single replicates (1st, 2nd)
[2] = test article 100 uM, single replicates (1st, 2nd)
[3] = PBMC + LPS(5 ug/ml) + test article 0.001 uM, Mean
[4] = PBMC + LPS(5 ug/ml) + test article 0.001 uM, single replicates
[5] = PBMC + LPS(5 ug/ml) + test article 0.01 uM, Mean
[6] = PBMC + LPS(5 ug/ml) + test article 0.01 uM, single replicates
[7] = PBMC + LPS(5 ug/ml) + test article 0.1 uM, Mean
[8] = PBMC + LPS(5 ug/ml) + test article 0.1 uM, single replicates
[9] = PBMC + LPS(5 ug/ml) + test article 1 uM, Mean
[10] = PBMC + LPS(5 ug/ml) + test article 1 uM, single replicates
[11] = PBMC + LPS(5 ug/ml) + test article 10 uM, Mean
[12] = PBMC + LPS(5 ug/ml) + test article 10 uM, single replicates
[13] = PBMC + LPS(5 ug/ml) + test article 100 uM, Mean
[14] = PBMC + LPS(5 ug/ml) + test article 100 uM, single replicates
[15] = PBMC + test article 0.01 uM, no LPS, Mean
[16] = PBMC + test article 0.01 uM, no LPS, single replicates
[17] = PBMC + test article 0.1 uM, no LPS, Mean
[18] = PBMC + test article 0.1 uM, no LPS, single replicates
[19] = PBMC + test article 10 uM, no LPS, Mean
[20] = PBMC + test article 10 uM, no LPS, single replicates
[21] = PBMC + test article 100 uM, no LPS, Mean
[22] = PBMC + test article 100 uM, no LPS, single replicates

## CC(C)C[C@H](NC(=O)CNC(=O)[C@H](CC(=O)O)NC(=O)[C@H](CCC(N)=O)NC(=O)CNC(=O)[C@@H]1C[C@@H](O)CN1)C(=O)N[C@@H](C)C(=O)NCC(=O)N1CCC[C@H]1C(=O)N[C@@H](CCCCN)C(=O)O [YY-101] (H-[Hyp]GQDGLAGPK-OH; N-terminus and C-terminus assumed)
CCL5/RANTES; test article 10 uM, Mean
  Concentration (CCL5/RANTES): 79.0 pg/mL
  MFI (Bead name: CCL5/RANTES): 136.0
  conc/live cell (CCL5/RANTES): 12.5 pg/10^5
CCL5/RANTES; [1]
  Concentration (CCL5/RANTES): 109.6 pg/mL and 48.3 pg/mL
  MFI (Bead name: CCL5/RANTES): 201.5 and 70.5
  conc/live cell (CCL5/RANTES): 17.1 pg/10^5 and 7.9 pg/10^5
CCL5/RANTES; test article 100 uM, Mean
  Concentration (CCL5/RANTES): 67.1 pg/mL
  MFI (Bead name: CCL5/RANTES): 107.0
  conc/live cell (CCL5/RANTES): 10.1 pg/10^5
CCL5/RANTES; [2]
  Concentration (CCL5/RANTES): 79.2 pg/mL and 55.0 pg/mL
  MFI (Bead name: CCL5/RANTES): 131.5 and 82.5
  conc/live cell (CCL5/RANTES): 12.4 pg/10^5 and 7.9 pg/10^5
IL-10; [3]
  Concentration: 479.4 pg/mL
  conc/live cell (pg/10^5): 74.9 pg/10^5
IL-10; [4]
  Concentration: 501.5 pg/mL and 488.8 pg/mL and 447.9 pg/mL
  conc/live cell (pg/10^5): 88.0 pg/10^5 and 68.9 pg/10^5 and 67.9 pg/10^5
IL-10; [5]
  Concentration: 499.9 pg/mL
  conc/live cell (pg/10^5): 81.1 pg/10^5
IL-10; [6]
  Concentration: 492.8 pg/mL and 499.5 pg/mL and 507.4 pg/mL
  conc/live cell (pg/10^5): 77.0 pg/10^5 and 83.2 pg/10^5 (2×)
IL-10; [7]
  Concentration: 445.6 pg/mL
  conc/live cell (pg/10^5): 76.6 pg/10^5
IL-10; [8]
  Concentration: 426.9 pg/mL and 459.4 pg/mL and 450.6 pg/mL
  conc/live cell (pg/10^5): 68.9 pg/10^5 and 88.3 pg/10^5 and 72.7 pg/10^5
IL-10; [9]
  Concentration: 519.9 pg/mL
  conc/live cell (pg/10^5): 80.1 pg/10^5
IL-10; [10]
  Concentration: 556.7 pg/mL and 484.8 pg/mL and 518.0 pg/mL
  conc/live cell (pg/10^5): 88.4 pg/10^5 and 68.3 pg/10^5 and 83.6 pg/10^5
IL-10; [11]
  Concentration: 474.4 pg/mL
  conc/live cell (pg/10^5): 72.3 pg/10^5
IL-10; [12]
  Concentration: 464.8 pg/mL and 537.1 pg/mL and 421.4 pg/mL
  conc/live cell (pg/10^5): 77.5 pg/10^5 and 83.9 pg/10^5 and 55.4 pg/10^5
IL-10; [13]
  Concentration: 172.4 pg/mL
  conc/live cell (pg/10^5): 29.9 pg/10^5
IL-10; [14]
  Concentration: 173.5 pg/mL and 168.6 pg/mL and 175.1 pg/mL
  conc/live cell (pg/10^5): 27.5 pg/10^5 and 27.2 pg/10^5 and 35.0 pg/10^5
IL-10; [15]
  Concentration: 4.3 pg/mL
  conc/live cell (pg/10^5): 0.5 pg/10^5
IL-10; [16]
  Concentration: 4.3 pg/mL
  conc/live cell (pg/10^5): 0.0 pg/10^5 and 0.9 pg/10^5
IL-10; [17]
  Concentration: 4.3 pg/mL
  conc/live cell (pg/10^5): 0.4 pg/10^5
IL-10; [18]
  Concentration: 4.3 pg/mL
  conc/live cell (pg/10^5): 0.0 pg/10^5 and 0.7 pg/10^5
IL-10; PBMC + test article 1 uM, no LPS, Mean
  conc/live cell (pg/10^5): 0.0 pg/10^5
IL-10; PBMC + test article 1 uM, no LPS, single replicates
  conc/live cell (pg/10^5): 0.0 pg/10^5
IL-10; [19]
  Concentration: 12.6 pg/mL
  conc/live cell (pg/10^5): 2.0 pg/10^5
IL-10; [20]
  Concentration: 23.2 pg/mL and 2.0 pg/mL
  conc/live cell (pg/10^5): 3.6 pg/10^5 and 0.3 pg/10^5
IL-10; [21]
  Concentration: 8.2 pg/mL
  conc/live cell (pg/10^5): 0.6 pg/10^5
IL-10; [22]
  Concentration: 8.2 pg/mL
  conc/live cell (pg/10^5): 1.3 pg/10^5 and 0.0 pg/10^5
IL-10; LPS 5 ug/mL 24 hrs, 100 uM to 1 nM
  LPS-induced IL-10 (in words): significantly reduced
